One experiment concerns the target T1, PDK1 kinase (Homo sapiens, UniProt O15530).
T1 sequence (O15530 1-556): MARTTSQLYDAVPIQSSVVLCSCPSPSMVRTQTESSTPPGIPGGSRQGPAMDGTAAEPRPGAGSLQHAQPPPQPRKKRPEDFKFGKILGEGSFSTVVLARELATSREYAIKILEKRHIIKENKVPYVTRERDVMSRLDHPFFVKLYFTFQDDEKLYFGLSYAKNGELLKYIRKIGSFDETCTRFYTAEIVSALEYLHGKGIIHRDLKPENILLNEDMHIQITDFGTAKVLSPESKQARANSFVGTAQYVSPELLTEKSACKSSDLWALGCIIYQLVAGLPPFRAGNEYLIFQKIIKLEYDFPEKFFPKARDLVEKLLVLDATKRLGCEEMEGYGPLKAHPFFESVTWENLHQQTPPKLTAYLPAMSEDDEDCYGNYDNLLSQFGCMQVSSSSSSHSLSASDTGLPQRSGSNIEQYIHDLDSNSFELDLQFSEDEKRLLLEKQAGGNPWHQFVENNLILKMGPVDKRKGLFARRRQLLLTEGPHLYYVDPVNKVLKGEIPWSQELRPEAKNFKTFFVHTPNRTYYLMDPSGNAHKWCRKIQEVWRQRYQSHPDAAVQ
Description: PDK1 Kinase Alpha Screen Assay. The class given is biochemical. The conditions noted are these: PDK1 Kinase Alpha Screen Assay; read-out: PDK1 IC50. An outline of the steps:
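Compound in DMSO added to PDK1-4 peptide; PDK1/ATP mix starts reaction (final 50 nM peptide, 10 uM ATP). Runs 3-18 hours, stopped with 90 mM EDTA buffer. Antibody/bead mix added, developed overnight at room temperature, then AlphaScreen signal read.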

The subject of a further experiment is PC-3 cells. Description: Cell Proliferation Assay (Cell Titer Glo), PC-3 cell line. In kind it is cell-based. The conditions noted are these: Homo sapiens, PC-3, Cell Proliferation Assay, PC3; read-out: CPEC50 PC3. The gist of the method: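 PC-3 cells, 1000 cells/well, left to adhere 3-5 h, then exposed for 3 days at 37° C to compounds as 1:3 serial dilutions from 500× DMSO stocks diluted in growth medium. Medium then replaced with fresh medium and viability read by Cell Titer Glo luminescence.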

Each structure is given as a SMILES string.

What is called IC50 is the concentration needed to halve the response being measured.

On to `c1cc(Nc2ncc3cccc(OC4CCNCC4)c3n2)cc(N2CCCC2)c1` [Compound 550, 8-(piperidin-4-yloxy)-N-(3-(pyrrolidin-1-yl)phenyl)quinazolin-2-amine], for which the IC50 on PDK1 kinase is under 5 µM. Besides, the EC50 in the experiment on PC-3 cells fell in the range of 5 to 10 µM.

As for `CC(C)N1CCC(Oc2cccc3cnc(Nc4cccc(N5CCCC5)c4)nc23)CC1` [Compound 551, 8-(1-isopropylpiperidin-4-yloxy)-N-(3-(pyrrolidin-1-yl)phenyl)quinazolin-2-amine], at PDK1 kinase, the IC50 is under 5 µM. Moreover, the EC50 in the experiment on PC-3 cells lay within 5 to 10 µM.

In the case of `CC(C)N1CCC(Oc2cccc3cnc(N4CCN(c5ccc(N)cc5)CC4)nc23)CC1` [Compound 552, 4-(4-(8-(1-isopropylpiperidin-4-yloxy)quinazolin-2-yl)piperazin-1-yl)aniline], the IC50 on PDK1 kinase was 10 to 25 µM. In the experiment with PC-3 cells, the EC50 lay in the range of 5 to 10 µM.

Turning to `CC(C)N1CCC(Oc2cc(-c3nccs3)cc3cnc(Nc4ccc(N5CCOCC5)cc4)nc23)CC1` [Compound 553, 8-(1-isopropylpiperidin-4-yloxy)-N-(4-morpholinophenyl)-6-(thiazol-2-yl)quinazolin-2-amine], the IC50 at PDK1 kinase is under 5 µM. Besides, in the experiment with PC-3 cells, the EC50 was under 5 µM.

Regarding `COc1cc(Nc2ncc3ccc(OC4CCN(C(C)C)CC4)cc3n2)cc(OC)c1` [Compound 565, N-(3,5-dimethoxyphenyl)-7-(1-isopropylpiperidin-4-yloxy)quinazolin-2-amine], on PDK1 kinase, the IC50 is 5 to 10 µM. Moreover, the EC50 in the experiment on PC-3 cells was in the range of 5 to 10 µM.

For the compound `COc1cc(Nc2ncc3ccc(OC4CCN(C)CC4)cc3n2)cc(OC)c1` [Compound 566, N-(3,5-dimethoxyphenyl)-7-(1-methylpiperidin-4-yloxy)quinazolin-2-amine], the IC50 on PDK1 kinase was under 5 µM. In addition, the EC50 in the experiment with PC-3 cells was under 5 µM.

Regarding `Fc1cccc(Nc2ncc3ccc(OC4CCNCC4)cc3n2)c1` [Compound 567, N-(3-fluorophenyl)-7-(piperidin-4-yloxy)quinazolin-2-amine], the IC50 at PDK1 kinase was under 5 µM. Besides, the EC50 in the experiment on PC-3 cells was under 5 µM.

As to `Fc1cc(F)cc(Nc2ncc3ccc(OC4CCNCC4)cc3n2)c1` [Compound 568, N-(3,5-difluorophenyl)-7-(piperidin-4-yloxy)quinazolin-2-amine], the IC50 at PDK1 kinase was under 5 µM. Further, in the experiment with PC-3 cells, the EC50 is under 5 µM.

As for `FC(F)(F)c1cccc(Nc2ncc3ccc(OC4CCNCC4)cc3n2)c1` [Compound 569, 7-(piperidin-4-yloxy)-N-(3-(trifluoromethyl)phenyl)quinazolin-2-amine], the IC50 on PDK1 kinase is under 5 µM. Further, in the experiment on PC-3 cells, the EC50 is under 5 µM.

`CS(=O)(=O)c1cccc(Nc2ncc3ccc(OC4CCNCC4)cc3n2)c1` [Compound 570, N-(3-(methylsulfonyl)phenyl)-7-(piperidin-4-yloxy)quinazolin-2-amine]: the IC50 at PDK1 kinase was under 5 µM. In the experiment on PC-3 cells, the EC50 is under 5 µM.

As to `COc1cccc(Nc2ncc3ccc(OC4CCNCC4)cc3n2)c1` [Compound 571, N-(3-methoxyphenyl)-7-(piperidin-4-yloxy)quinazolin-2-amine], the IC50 on PDK1 kinase was under 5 µM. In the experiment with PC-3 cells, the EC50 is under 5 µM.

`c1cc(Nc2ncc3ccc(OC4CCNCC4)cc3n2)cc(N2CCOCC2)c1` [Compound 572, N-(3-morpholinophenyl)-7-(piperidin-4-yloxy)quinazolin-2-amine]: at PDK1 kinase, the IC50 was under 5 µM. For the same compound, the EC50 in the experiment with PC-3 cells is under 5 µM.

`CC(C)N1CCC(Oc2ccc3cnc(Nc4cccc(F)c4)nc3c2)CC1` [Compound 573, N-(3-fluorophenyl)-7-(1-isopropylpiperidin-4-yloxy)quinazolin-2-amine]: the IC50 on PDK1 kinase is under 5 µM. In addition, the EC50 in the experiment on PC-3 cells lay in the range of 5 to 10 µM.

Consider `CC(C)N1CCC(Oc2ccc3cnc(Nc4cc(F)cc(F)c4)nc3c2)CC1` [Compound 574, N-(3,5-difluorophenyl)-7-(1-isopropylpiperidin-4-yloxy)quinazolin-2-amine], for which the IC50 at PDK1 kinase is under 5 µM. For the same compound, in the experiment on PC-3 cells, the EC50 is under 5 µM.

Consider `CC(C)N1CCC(Oc2ccc3cnc(Nc4cccc(C(F)(F)F)c4)nc3c2)CC1` [Compound 575, 7-(1-isopropylpiperidin-4-yloxy)-N-(3-(trifluoromethyl)phenyl)quinazolin-2-amine], for which the IC50 on PDK1 kinase is under 5 µM. The EC50 in the experiment with PC-3 cells is under 5 µM.

On to `COc1cccc(Nc2ncc3ccc(OC4CCN(C(C)C)CC4)cc3n2)c1` [Compound 576, 7-(1-isopropylpiperidin-4-yloxy)-N-(3-methoxyphenyl)quinazolin-2-amine], for which, on PDK1 kinase, the IC50 is under 5 µM. The EC50 in the experiment on PC-3 cells is 5 to 10 µM.

With `CC(C)N1CCC(Oc2ccc3cnc(Nc4ccc5nn[nH]c5c4)nc3c2)CC1` [Compound 577, N-(1H-benzo[d][1,2,3]triazol-6-yl)-7-(1-isopropylpiperidin-4-yloxy)quinazolin-2-amine], the IC50 at PDK1 kinase was under 5 µM. The EC50 with PC-3 cells was in the range of 5 to 10 µM.

For the compound `CC(C)N1CCC(Oc2ccc3cnc(Nc4cccc(N5CCCC5)c4)nc3c2)CC1` [Compound 579, 7-(1-isopropylpiperidin-4-yloxy)-N-(3-(pyrrolidin-1-yl)phenyl)quinazolin-2-amine], the IC50 on PDK1 kinase was under 5 µM. The EC50 with PC-3 cells was in the range of 5 to 10 µM.

For `CC(C)N1CCC(Oc2ccc3cnc(Nc4cccc(N5CCOCC5)c4)nc3c2)CC1` [Compound 580, 7-(1-isopropylpiperidin-4-yloxy)-N-(3-morpholinophenyl)quinazolin-2-amine], at PDK1 kinase, the IC50 lay within 5 to 10 µM. Also, the EC50 in the experiment with PC-3 cells was in the range of 5 to 10 µM.

Regarding `CN1CCN(c2cccc(Nc3ncc4ccc(OC5CCNCC5)cc4n3)c2)CC1` [Compound 581, N-(3-(4-methylpiperazin-1-yl)phenyl)-7-(piperidin-4-yloxy)quinazolin-2-amine], the IC50 on PDK1 kinase was under 5 µM. In addition, the EC50 with PC-3 cells was under 5 µM.

As to `CC(C)N1CCC(Oc2ccc3cnc(Nc4cccc(N5CCN(C)CC5)c4)nc3c2)CC1` [Compound 582, 7-(1-isopropylpiperidin-4-yloxy)-N-(3-(4-methylpiperazin-1-yl)phenyl)quinazolin-2-amine], on PDK1 kinase, the IC50 is under 5 µM. Moreover, the EC50 in the experiment with PC-3 cells lay in the range of 5 to 10 µM.

Regarding `Cc1nc(Nc2ccc(S(N)(=O)=O)cc2)nc2cc(OCCC3CCNCC3)ccc12` [Compound 583], the IC50 at PDK1 kinase was 10 to 25 µM. Further, the EC50 in the experiment with PC-3 cells was 5 to 10 µM.

For `c1ncc(-c2ccc(Nc3ncc4ccc(OC5CCNCC5)cc4n3)cc2)o1` [Compound 584, N-(4-(oxazol-5-yl)phenyl)-7-(piperidin-4-yloxy)qinazolin-2-amine], at PDK1 kinase, the IC50 was under 5 µM. The EC50 with PC-3 cells was under 5 µM.

For `O=C(c1ccc(Nc2ncc3ccc(OC4CCNCC4)cc3n2)cc1)N1CCOCC1` [Compound 585, morpholilno(4-(7-(piperidin-4-yloxy)quinazolin-2-ylamino)phenyl)methanone], the IC50 at PDK1 kinase was under 5 µM. In the experiment with PC-3 cells, the EC50 is under 5 µM.

For the compound `NS(=O)(=O)c1ccc(Nc2ncc3c(-c4cn[nH]c4)ccc(OC4CCNCC4)c3n2)cc1` [Compound 586, 4-(8-(piperidin-4-yloxy)-5-(1H-pyrazol-4-yl)quinazolin-2-ylamino)benzensulfonamide], the IC50 on PDK1 kinase was in the range of 5 to 10 µM. In the experiment with PC-3 cells, the EC50 was 5 to 10 µM.

Take `COc1cc(Nc2ncc3ccc(OC4CCNCC4)cc3n2)cc(C(F)(F)F)c1` [Compound 587, N-(3-methoxy-5-(trifluoromethyl)phenyl)-7-(piperidin-4-yloxy)quinazolin-2-amine]: the IC50 at PDK1 kinase is under 5 µM. Also, in the experiment on PC-3 cells, the EC50 is under 5 µM.

For `NC(=O)c1cc(Nc2ncc3ccc(OC4CCNCC4)cc3n2)cc(C(F)(F)F)c1` [Compound 588, 3-(7-(piperidin-4-yloxy)quinazolin-2-ylamino)-5-(trifluoromethyl)benzamide], the IC50 at PDK1 kinase is under 5 µM. The EC50 with PC-3 cells is under 5 µM.

For `Fc1ccc(Nc2ncc3ccc(OC4CCNCC4)cc3n2)cc1Br` [Compound 589, N-(3-bromo-4-fluorophenyl)-7-(piperidin-4-yloxy)quinazolin-2-amine], the IC50 at PDK1 kinase is under 5 µM. Besides, in the experiment on PC-3 cells, the EC50 was under 5 µM.

For the compound `CC(C)NC(=O)c1ccc(Nc2ncc3ccc(OC4CCNCC4)cc3n2)cc1` [Compound 590, N-isopropyl-4-(7-(piperidin-4-yloxy)quinazolin-2-ylamino)benzamide], the IC50 at PDK1 kinase is under 5 µM. Besides, the EC50 in the experiment with PC-3 cells was under 5 µM.

As for `Fc1ccc(Nc2ncc3ccc(OC4CCNCC4)cc3n2)cc1-c1cnoc1` [Compound 592, N-(4-fluoro-3-(isoxazol-4-yl)phenyl)-7-(piperidin-4-yloxy)quinazolin-2-amine], at PDK1 kinase, the IC50 is under 5 µM. The EC50 with PC-3 cells lay in the range of 5 to 10 µM.

`Fc1cc(Nc2ncc3ccc(OC4CCNCC4)cc3n2)ccc1N1CCOCC1` [Compound 593, N-(3-fluoro-4-morpholinophenyl)-7-(piperidin-4-yloxy)quinazolin-2-amine]: the IC50 at PDK1 kinase is under 5 µM. Also, the EC50 in the experiment with PC-3 cells is under 5 µM.

Source of the values: patent publication US7932262B2 (Novartis AG, priority 2006, dated 2011).
